pEC50: −log10 of the molar value.
How the values were obtained:
[1] = target: T1, NMDAR2B expressing HEK cell membranes (Homo sapiens, UniProt Q05586+Q13224); experiment: NMDAR agonist assay, [3H]MK-801 binding, NMDAR2B; format: biochemical
T1 construct: expressed in transfected cells; host or cells: HEK cells (membrane extract)
Method: (nonequilibrium conditions).
The baseline value was determined from the best fit curve of the DPM values modeled using the GraphPad program and the log(agonist) vs. response(three parameters) algorithm was then subtracted from all points in the dataset.

[2] = system: positive (hedonic) 50-kHz ultrasonic vocalizations (USVs); experiment: Positive Emotional Learning (PEL) test; format: in vivo; details: rat, PO, dose 0.001-1 mg/kg, one hour after administration
In short: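 Rats received test compound or vehicle (0.5% carboxymethyl cellulose in saline) 1 h before 3 min of experimenter-delivered rough-and-tumble play in alternating 15 s play and no-stimulation blocks. Frequency-modulated 50-kHz USVs during no-stimulation (CS) periods were counted; animals not habituated beforehand.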

[3] = IV pharmacokinetics; format: in vivo; details: rat, in vivo, Sprague Dawley rats, 2 mg/kg, normal saline
Method: Sprague Dawley rats were dosed intravenously using a normal saline formulation containing 2 mg/kg of the compounds identified in the below table. The table below summarizes the results of the IV pharmacokinetics.

T1 sequence (Q13224 27-1484, other chains not shown): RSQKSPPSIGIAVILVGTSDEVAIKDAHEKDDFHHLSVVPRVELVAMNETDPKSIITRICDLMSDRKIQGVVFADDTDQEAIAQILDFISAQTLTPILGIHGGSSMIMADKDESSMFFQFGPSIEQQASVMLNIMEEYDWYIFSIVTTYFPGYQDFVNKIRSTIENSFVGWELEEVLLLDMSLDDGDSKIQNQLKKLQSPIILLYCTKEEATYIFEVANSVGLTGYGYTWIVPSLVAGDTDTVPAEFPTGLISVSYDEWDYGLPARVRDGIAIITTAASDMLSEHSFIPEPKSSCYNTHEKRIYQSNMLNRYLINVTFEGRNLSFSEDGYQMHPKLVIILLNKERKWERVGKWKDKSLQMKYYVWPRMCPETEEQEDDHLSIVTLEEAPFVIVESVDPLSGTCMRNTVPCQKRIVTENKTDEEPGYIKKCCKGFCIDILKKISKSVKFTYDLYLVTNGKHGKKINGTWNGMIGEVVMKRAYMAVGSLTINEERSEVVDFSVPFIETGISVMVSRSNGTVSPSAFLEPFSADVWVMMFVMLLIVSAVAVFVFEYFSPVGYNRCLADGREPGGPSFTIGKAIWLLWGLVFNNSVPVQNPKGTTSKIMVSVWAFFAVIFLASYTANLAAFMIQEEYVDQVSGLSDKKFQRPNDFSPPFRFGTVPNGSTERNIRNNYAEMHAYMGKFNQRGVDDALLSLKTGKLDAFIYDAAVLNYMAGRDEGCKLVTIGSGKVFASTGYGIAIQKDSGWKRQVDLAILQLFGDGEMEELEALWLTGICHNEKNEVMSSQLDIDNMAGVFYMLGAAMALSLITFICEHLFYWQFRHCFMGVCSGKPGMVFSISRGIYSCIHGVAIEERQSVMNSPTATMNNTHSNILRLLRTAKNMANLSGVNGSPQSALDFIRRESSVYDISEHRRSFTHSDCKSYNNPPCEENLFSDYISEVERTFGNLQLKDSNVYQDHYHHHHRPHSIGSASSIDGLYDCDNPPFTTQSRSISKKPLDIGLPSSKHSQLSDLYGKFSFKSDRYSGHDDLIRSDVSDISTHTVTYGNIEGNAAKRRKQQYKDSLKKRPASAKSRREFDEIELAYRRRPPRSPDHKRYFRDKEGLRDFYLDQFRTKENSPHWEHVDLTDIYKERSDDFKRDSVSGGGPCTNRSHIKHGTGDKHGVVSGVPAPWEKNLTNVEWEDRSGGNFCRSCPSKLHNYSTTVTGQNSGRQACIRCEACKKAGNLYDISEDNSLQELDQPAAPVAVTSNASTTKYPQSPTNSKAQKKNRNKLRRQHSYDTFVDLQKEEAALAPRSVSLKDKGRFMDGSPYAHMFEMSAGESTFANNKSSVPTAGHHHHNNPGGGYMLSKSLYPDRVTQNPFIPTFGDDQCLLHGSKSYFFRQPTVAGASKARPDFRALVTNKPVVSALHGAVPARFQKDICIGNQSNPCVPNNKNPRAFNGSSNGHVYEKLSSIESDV

## CC(C)CN1[C@@]2(CC[C@@]13CNC3=O)CNC2=O [Compound AD, 5-isobutyl-2,5,8-triazadispiro[3.1.36.24]undecane-1,7-dione]
[1]; NMDAR2B: log EC50, 50 μM glutamate, [3H]MK-801 binding
  pEC50: > 9.00
[1]; read-out: NMDAR2B: % maximal [3H]MK-801 binding relative to 1 mM glycine, 50 μM glutamate, relative to 1 mM glycine
  Emax: < 100%
[2]
  Max Effect (mean number of 50 kHz USVs per 15 seconds): ** (**: 11-16.9)
[3]
  AUC(0-t): 4710 ng·h/mL
  clearance: 7.01 mL/min/kg
  half-life: 2.27 h
[3]; read-out: C0
  C0: 2800 ng/mL
[3]; read-out: Vss
  Vd: 0.92 L/kg

From US11028095B2, “Spiro-lactam and bis-spiro-lactam NMDA receptor modulators and uses thereof” (Aptinyx Inc., priority 2016, dated 2021)
